The text below walks through data of patent US7163952B2, “Azole compound and medicinal use thereof” (Japan Tobacco Inc., priority 2001, dated 2007).

Where a name gives a salt, the structure may show the parent alone.

Usually melting point stands for the temperature of the solid-liquid transition. With `COc1ccc(OCc2ccccc2)c(-c2csc(N(CCC3CCCCC3)c3ccc(C(=O)O)cc3)n2)c1` [Example 169, 4-(N-(4-(2-benzyloxy-5-methoxyphenyl)-2-thiazolyl)-N-(2-cyclohexylethyl)amino)benzoic acid], the melting point was 132 to 137 °C.

In the case of `CCN(c1ccc(C(=O)O)cc1)c1nc(-c2cccc(OCc3ccc(C4CCCCC4)cc3)c2)cs1` [Example 140, 4-(N-(4-(3-(4-cyclohexylbenzyloxy)phenyl)-2-thiazolyl)-N-ethylamino)benzoic acid], the melting point lay in the range of 179 to 180 °C.

Consider `O=C(O)c1ccc(N(CC2CCCCC2)c2nc(-c3nc4ccc(OCc5ccc(C(F)(F)F)cc5C(F)(F)F)cc4o3)cs2)cc1` [Example 189, 4-(N-(4-(6-(2,4-bis(trifluoromethyl)benzyloxy)-2-benzooxazolyl)-2-thiazolyl)-N-cyclohexylmethylamino)benzoic acid], for which the melting point lay in the range of 213 to 214 °C.

Take `CC(C)N(c1ccc(C(=O)O)cc1)c1nc(-c2ccc(NC(=O)c3ccc(N4CCCCC4)cc3)cc2)cs1.Cl`: the melting point is 230 °C (dec.).

For the compound `CC(C)N(Cc1cccc(C(=O)O)c1)c1nc(-c2ccc(OCc3ccc(C4CCCCC4)cc3)cc2)cs1` [Example 87, 3-((N-(4-(4-(4-cyclohexylbenzyloxy)phenyl)-2-thiazolyl)-N-isopropylamino)methyl)benzoic acid], the melting point lay within 196 to 197 °C.

Take `CC(OC(=O)OC1CCCCC1)OC(=O)c1ccc(CN(C)c2nc(-c3ccc(OCc4ccc(C5CCCCC5)cc4)cc3)cs2)cc1` (stereo not shown) [Example 272, 1-cyclohexyloxycarbonyloxyethyl 4-((N-(4-(4-(4-cyclohexylbenzyloxy)phenyl)-2-thiazolyl)-N-methylamino)methyl)benzoate]: the melting point lay in the range of 75 to 79 °C.

`O=C(O)c1ccc(N(CC2CCCCC2)c2nc(-c3ccc(NCc4ccc(Cl)c(Cl)c4)cc3)cs2)cc1` [Example 129, 4-(N-cyclohexylmethyl-N-(4-(4-(3,4-dichlorobenzylamino)phenyl)-2-thiazolyl)amino)benzoic acid] registered a melting point of 187 to 189 °C.

As to `O=C(O)c1ccc(N(CCC2CCCCC2)c2nc(-c3cc(Cl)ccc3OCc3ccc(C(F)(F)F)cc3)cs2)cc1` [Example 177, 4-(N-(4-(5-chloro-2-(4-trifluoromethylbenzyloxy)phenyl)-2-thiazolyl)-N-(2-cyclohexylethyl)amino)benzoic acid], the melting point is 170 to 175 °C.

Consider `CC(C)N(Cc1ccc(C(=O)O)cc1)c1nc(-c2ccc(OCc3ccc(Cl)c(Cl)c3)cc2)cs1` [Example 77, 4-((N-(4-(4-(3,4-dichlorobenzyloxy)phenyl)-2-thiazolyl)-N-isopropylamino)methyl)benzoic acid], for which the melting point fell in the range of 180 to 181 °C.

As to `CC(C)N(c1ccc(C(=O)O)c(Cl)c1)c1nc(-c2ccc(NC(=O)c3ccc(N4CCCCC4)cc3)cc2)cs1.Cl`, the melting point was 220 °C (dec.).

Take `CCC(CC)c1ccc(CN(C)c2ccc(-c3csc(N(C)Cc4ccc(C(=O)O)cc4)n3)cc2)cc1` [Example 241, 4-((N-(4-(4-(N-(4-(1-ethylpropyl)benzyl)-N-methylamino)phenyl)-2-thiazolyl)-N-methylamino)methyl)benzoic acid]: the melting point fell in the range of 147 to 148 °C.

With `O=C(O)c1ccc(Cc2nc(-c3ccc(NC(=O)c4ccc(C5CCCCC5)cc4)cc3)cs2)cc1` [Example 68, 4-(4-(4-(4-cyclohexylbenzoylamino)phenyl)-2-thiazolylmethyl)benzoic acid], the melting point is 230 °C (dec.).

Regarding `O=C(O)c1ccc(Nc2nc(-c3ccc(OCc4ccc(C5CCCCC5)cc4)cc3)cs2)c(OCc2ccccc2)c1` [Example 73, 3-benzyloxy-4-(4-(4-(4-cyclohexylbenzyloxy)phenyl)-2-thiazolylamino)benzoic acid], the melting point is 230 °C (dec.).

`CC(C)N(c1ccc(C(=O)[O-])cc1)c1nc(-c2ccc(OCc3ccc(C4CCCCC4)cc3)cc2)cs1.[Na+]` [Example 34, sodium 4-(N-(4-(4-(4-cyclohexylbenzyloxy)phenyl)-2-thiazolyl)-N-isopropylamino)benzoate]: the melting point is 230 °C (dec.).

Take `O=C(O)c1ccc(Cc2nc(-c3ccc(NC(=O)c4ccc(-n5cccc5)cc4)cc3)cs2)cc1` [Example 70, 4-(4-(4-(4-(1-pyrrolyl)benzoylamino)phenyl)-2-thiazolylmethyl)benzoic acid]: the melting point was 220 °C (dec.).

In the case of `O=C(O)c1ccc(Nc2nc(-c3ccc(OCc4ccc(C5CCCCC5)cc4)cc3)cs2)cc1` [Example 21, 4-(4-(4-(4-cyclohexylbenzyloxy)phenyl)-2-thiazolylamino)benzoic acid], the melting point is 250 °C (dec.).

In the case of `O=C(O)c1ccc(Nc2nc(-c3cc(Cl)ccc3OCc3ccccc3)cs2)cc1` [Example 148, 4-(4-(2-benzyloxy-5-chlorophenyl)-2-thiazolylamino)benzoic acid], the melting point is 208 to 211 °C.

The compound `CC(C)(c1ccc(C(=O)O)cc1)c1nc(-c2ccc(NC(=O)c3ccc(C4CCCCC4)cc3)cc2)cs1` [Example 43, 4-(1-(4-(4-(4-cyclohexylbenzoylamino)phenyl)-2-thiazolyl)-1-methylethyl)benzoic acid] yielded a melting point of 262 to 264 °C.

`O=C(O)c1ccc(Nc2nc(-c3nc4cc(OCc5ccc(Cl)c(Cl)c5)ccc4[nH]3)cs2)cc1` (as salt: hydrochloride) [Example 186, 4-(4-(5-(3,4-dichlorobenzyloxy)-2-benzoimidazolyl)-2-thiazolylamino)benzoic acid hydrochloride] gave a melting point of 220 °C.

As to `CN(Cc1ccc(C(=O)[O-])cc1)c1nc(-c2ccc(OCc3ccc(C4CCCCC4)cc3)cc2)cs1.[Na+]` [Example 120, sodium 4-((N-(4-(4-(4-cyclohexylbenzyloxy)phenyl)-2-thiazolyl)-N-methylamino)methyl)benzoate], the melting point is 250 °C (dec.).

Turning to `CN(Cc1ccc(C(=O)O)cc1)c1nc(-c2cc(Cl)ccc2OCc2ccccc2)cs1` [Example 163, 4-((N-(4-(2-benzyloxy-5-chlorophenyl)-2-thiazolyl)-N-methylamino)methyl)benzoic acid], the melting point was 169 to 171 °C.

As to `CN(CCc1ccc(N2CCOCC2)cc1)c1ccc(-c2csc(N(C)Cc3ccc(C(=O)O)cc3)n2)cc1` [Example 238, 4-((N-methyl-N-(4-(4-(N-methyl-N-(2-(4-morpholinophenyl)ethyl)amino)phenyl)-2-thiazolyl)amino)methyl)benzoic acid], the melting point fell in the range of 212 to 213 °C.

As for `CC(C)N(c1ccc(OCC(=O)O)cc1)c1nc(-c2ccc(NC(=O)C3CCCCC3)cc2)cs1` [Example 50, (4-(N-(4-(4-(cyclohexanecarbonylamino)phenyl)-2-thiazolyl)-N-isopropylamino)phenoxy)acetic acid], the melting point was 225 °C (dec.).

For `CC(C)N(c1ccc(C(=O)O)c(Cl)c1)c1nc(-c2ccc(NC(=O)c3ccc(N4CCN(C)CC4)cc3)cc2)cs1` [Example 41, 2-chloro-4-(N-isopropyl-N-(4-(4-(4-(4-methyl-1-piperazinyl)benzoylamino)phenyl)-2-thiazolyl)amino)benzoic acid], the melting point was 220 °C (dec.).

`CN(Cc1ccc(C2CCC(C)(C)CC2)cc1)c1ccc(-c2csc(N(C)Cc3ccc(C(=O)[O-])cc3)n2)cc1.[Na+]` [Example 216, sodium 4-((N-(4-(4-(N-(4-(4,4-dimethylcyclohexyl)benzyl)-N-methylamino)phenyl)-2-thiazolyl)-N-methylamino)methyl)benzoate]: the melting point came to 230 °C.

As for `O=C(O)c1ccc(COc2ccc(-c3csc(Cc4ccc(C(=O)O)cc4)n3)cc2)cc1` [Example 49, 4-(4-(4-(4-carboxybenzyloxy)phenyl)-2-thiazolylmethyl)benzoic acid], the melting point is 270 °C (dec.).

With `O=C(O)CCCN(c1ccc(C(=O)O)cc1)c1nc(-c2ccc(OCc3ccc(C4CCCCC4)cc3)cc2)cs1` [Example 26, 4-(N-(3-carboxypropyl)-N-(4-(4-(4-cyclohexylbenzyloxy)phenyl)-2-thiazolyl)amino)benzoic acid], the melting point is 230 °C (dec.).

The compound `CN(CCCCc1ccccc1)c1ccc(-c2csc(N(C)Cc3ccc(C(=O)O)cc3)n2)cc1` [Example 222, 4-((N-methyl-N-(4-(4-(N-methyl-N-(4-phenylbutyl)amino)phenyl)-2-thiazolyl)amino)methyl)benzoic acid] gave a melting point of 146 to 147 °C.

Consider `COc1ccc(OCc2ccccc2)c(-c2csc(Nc3ccc(C(=O)O)cc3)n2)c1` [Example 154, 4-(4-(2-benzyloxy-5-methoxyphenyl)-2-thiazolylamino)benzoic acid], for which the melting point was in the range of 184 to 185 °C.

For `CC(C)N(Cc1ccc(C(=O)O)cc1)c1nc(-c2ccc(NC(=O)c3ccc(C4CCCCC4)cc3)cc2)cs1` [Example 61, 4-((N-(4-(4-(4-cyclohexylbenzoylamino)phenyl)-2-thiazolyl)-N-isopropylamino)methyl)benzoic acid], the melting point is 250 °C (dec.).

On to `CC(C)OC(=O)OC(C)OC(=O)c1ccc(CN(C)c2nc(-c3ccc(OCc4ccc(C5CCCCC5)cc4)cc3)cs2)cc1` (stereo not shown) [Example 271, 1-isopropoxycarbonyloxyethyl 4-((N-(4-(4-(4-cyclohexylbenzyloxy)phenyl)-2-thiazolyl)-N-methylamino)methyl)benzoate], for which the melting point fell in the range of 76 to 84 °C.

For the compound `CC(C)N(c1ccc(OCC(=O)O)cc1)c1nc(-c2ccc(NC(=O)c3ccc(C4CCCCC4)cc3)cc2)cs1` [Example 51, (4-(N-(4-(4-(4-cyclohexylbenzoylamino)phenyl)-2-thiazolyl)-N-isopropylamino)phenoxy)acetic acid], the melting point was 240 °C (dec.).

With `O=C(O)c1ccc(N(CCC2CCCCC2)c2nc(-c3nc4cc(OCc5ccc(Cl)c(Cl)c5)ccc4[nH]3)cs2)cc1` (as salt: hydrochloride) [Example 185, 4-(N-(2-cyclohexylethyl)-N-(4-(5-(3,4-dichlorobenzyloxy)-2-benzoimidazolyl)-2-thiazolyl)amino)benzoic acid hydrochloride], the melting point was in the range of 173 to 176 °C.

Regarding `CC1CC(C)CN(c2ccc(C(=O)Nc3ccc(-c4csc(N(c5ccc(C(=O)O)cc5)C(C)C)n4)cc3)cc2)C1.Cl` (stereo not shown), the melting point is 152 to 160 °C.
